According to patent US11970478B1, “9-(2-hydroxyquinolin-3-yl)-10-(2-hydroxyethyl)-3,3,6,6-tetramethyl-3,4,6,7,9,10-hexahydroacridine1,8(2H,5H)-dione as an antimicrobial compound” (KING FAISAL UNIVERSITY, priority 2023, dated 2024):

Tests used:
Conditions in all cases: after 10, 20, 40 and 60 minutes at all dilutions 1:100 to 1:800
St. Aereus = experiment: Antimicrobial activity by agar dilution, St. Aereus; assay type: cell-based, Staphylococcus aureus
Procedure: (§1) The antimicrobial properties of the synthesized compound 9-(2-hydroxyquinolin-3-yl)-10-(2-hydroxyethyl)-3,3,6,6-tetramethyl-3,4,6,7,9,10-hexahydroacridine1,8(2H,5H)-dione were studied by the method of agar dilution. Test solutions of each compound were prepared in a concentration of 1% using dimethylformamide as a solvent. Then they were diluted in a physiological solution to obtain the final experimental dilutions 1:100, 1:200, 1:400, and 1:800. The effect of these substances were compared with furacillin in a controllable study. The testing microbes used were gram positive bacteria St. Aereus, gram negative bacteria E. Coli and Ps. Aeruginosa, and Candida albicans fungi. The experiments used for this survey were meat-pentonlu agar (EPA) for cultivation of bacteria and Saburo environment for fungi. Each experiment used 1 ml of test solution on each plate 500 min. Add 2 drops of emulsified with microbes feel. All experimental samples were taken from the agar after 10, 20, 40, 60 minutes in the environment on the basis of Patrk planted. Bacteria were cultivated at a temperature of 37° C. for 1 day and the mushroom was kept in a thermostat for 2 hours at a temperature of 28° C. Then the results were checked.

E. Coli = experiment: Antimicrobial activity by agar dilution, E. Coli; assay type: cell-based, Escherichia coli
Procedure: as §1

Ps. Aeruginosa = experiment: Antimicrobial activity by agar dilution, Ps. Aeruginosa; assay type: cell-based, Pseudomonas aeruginosa
Procedure: as §1

Candida albicans = experiment: Antimicrobial activity by agar dilution, Candida albicans; assay type: cell-based
Procedure: as §1

Measured: inhibition activity (in words)

CC1(C)CC(=O)C2=C(C1)N(CCO)C1=C(C(=O)CC(C)(C)C1)C2c1cc2ccccc2nc1O [9-(2-hydroxyquinolin-3-yl)-10-(2-hydroxyethyl)-3,3,6,6-tetramethyl-3,4,6,7,9,10-hexahydroacridine1,8(2H,5H)-dione]
highest inhibition activity: all assays above
